According to ChEMBL document CHEMBL3137667, “[Drug-induced liver injury; fourteenth updated edition of the bibliographic database of liver injuries and related drugs]” (Gastroenterol Clin Biol, 2004):

How the values were obtained:
[1] = Highest frequency of moderate liver toxicity observed during clinical trials, expressed as a percentage. [column '% BIOL' in source]; settings: human
[2] = Highest frequency of acute liver toxicity observed during clinical trials, expressed as a percentage. [column '% AIGUE' in source]; settings: human
[3] = human, serum
[4] = human, serum; remark: listed apart in the source
[5] = human
[6] = human; remark: listed apart in the source
[7] = human; remark: listed apart in the source
[8] = human, serum, 4383 h
[9] = human; remark: listed apart in the source
[10] = human; remark: listed apart in the source
[11] = human; remark: listed apart in the source
[12] = human; remark: listed apart in the source
[13] = human; remark: listed apart in the source
[14] = human; remark: listed apart in the source
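Throughout, for Hepatotoxicity (association with vascular disease): count of indexed literature references reporting vascular liver injury in humans, e.g. peliosis hepatitis, hepatic veno-occlusive disease or Budd-Chiari syndrome.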
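Throughout, for Hepatotoxicity (benign tumour): value is a count of indexed literature references citing a benign tumour confirmed by histopathology.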
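Throughout, for Hepatotoxicity (choleostasis): human cholestatic liver injury, shown by histopathology or by peak ALT or AST elevation over alkaline phosphatase ratio below 2, value counts indexed literature reports.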
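Throughout, for Hepatotoxicity (chronic liver disease): chronic liver injury confirmed by histopathology or persistently raised serum aminotransferase activity beyond 6 months, value given as the count of indexed literature references.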
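Throughout, for Hepatotoxicity (cirrhosis): value is a count of indexed literature references reporting cirrhosis confirmed by histopathology.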
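Throughout, for Hepatotoxicity (cytolytic): human cytolytic liver injury, shown by histopathology or by a ratio above 5 of peak ALT or AST elevation to alkaline phosphatase elevation, value counts indexed references.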
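Throughout, for Hepatotoxicity (granulomatous hepatitis): value is a count of indexed literature references reporting granulomatous liver disease confirmed by histopathology.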
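Throughout, for Hepatotoxicity (malignant tumour): malignant tumour confirmed by histopathology, value gives the count of indexed literature references reporting it.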
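Throughout, for Hepatotoxicity (severe hepatitis): human clinical data: severe hepatitis, meaning potentially life-threatening liver failure or clinically observed cases, the value counts how many indexed literature references report it.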
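Throughout, for Hepatotoxicity (steatosis): steatosis confirmed by histopathology, value is the count of indexed references.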

Compound	Hepatotoxicity (moderate) [1]	Hepatotoxicity (acute) [2]	Hepatotoxicity (moderate) [3]	Hepatotoxicity (acute) [4]	Hepatotoxicity (cytolytic) [5]	Hepatotoxicity (choleostasis) [6]	Hepatotoxicity (severe hepatitis) [7]	Hepatotoxicity (chronic liver disease) [8]	Hepatotoxicity (cirrhosis) [9]	Hepatotoxicity (granulomatous hepatitis) [10]	Hepatotoxicity (association with vascular disease) [11]	Hepatotoxicity (steatosis) [12]	Hepatotoxicity (malignant tumour) [13]	Hepatotoxicity (benign tumour) [14]
NCCC(O)(P(=O)(O)O)P(=O)(O)O [PAMIDRONIC ACID]	2.7%	0%	3	0	0	0	0	0	0	0	0	0	0	0
CCC(=O)NS(=O)(=O)c1ccc(-c2c(-c3ccccc3)noc2C)cc1 [PARECOXIB]	6.5%	0%	1	0	0	0	0	0	0	0	0	0	0	0
C[C@H]1COc2c(C3(N)CC3)c(F)cc3c(=O)c(C(=O)O)cn1c23 [PAZUFLOXACIN]	11.1%	0%	31	0	0	0	0	0	0	0	0	0	0	0
CNc1nc(N(C)C)nc(N(C)C)n1 [PENTAMETHYL MELAMINE]	31%	0%	1	0	0	0	0	0	0	0	0	0	0	0
CCCN1C[C@H](CSC)C[C@@H]2c3cccc4[nH]cc(c34)C[C@H]21 [PERGOLIDE]	1.9%	0%	3	0	0	0	0	0	0	0	0	0	0	0
CCC(C(=O)NC(N)=O)c1ccccc1 (centres undefined) [PHENETURIDE]	0%	0%	1	0	0	0	0	0	0	0	0	0	0	0
O=C(O)c1ccccc1C(=O)Nc1ccc(S(=O)(=O)Nc2nccs2)cc1 [PHTHALYLSULFATHIAZOLE]	0%	0%	0	1	0	0	0	0	0	0	0	0	0	0
CCn1cc(C(=O)O)c(=O)c2cnc(N3CCNCC3)nc21 [PIPEMIDIC ACID]	0%	0%	1	0	0	0	0	0	0	0	0	0	0	0
CC(=O)c1ccc2c(c1)N(CCCN1CCC(CCO)CC1)c1ccccc1S2 [PIPERACETAZINE]	39%	0%	1	0	0	0	0	0	0	0	0	0	0	0
CN(C)S(=O)(=O)c1ccc2c(c1)N(CCCN1CCC(CCO)CC1)c1ccccc1S2 [PIPOTIAZINE]	1.9%	0%	1	0	0	0	0	0	0	0	0	0	0	0
COc1cccc2c1C(=O)c1c(O)c3c(c(O)c1C2=O)C[C@@](O)(C(=O)CO)C[C@@H]3O[C@H]1C[C@H](N)[C@H](O[C@@H]2CCCCO2)[C@H](C)O1 [PIRARUBICIN]	1.1%	0%	1	0	0	0	0	0	0	0	0	0	0	0
CN1CCN(CC(=O)N2c3ccccc3C(=O)Nc3cccnc32)CC1 [PIRENZEPINE]	0.7%	0%	2	0	0	0	0	0	0	0	0	0	0	0
Cc1cccc(Nc2cc(Cl)nc(SCC(=O)NCCO)n2)c1C [PIRINIXIL]	0%	0%	1	0	0	0	0	0	0	0	0	0	0	0
CC1CCCC(C)N1CCCC(O)(c1ccccc1)c1ccccn1 (centres undefined) [PIRMENOL]	5.3%	0%	1	0	0	0	0	0	0	0	0	0	0	0
NCCCNc1ccc2c3c(nn2CCNCCO)-c2c(O)ccc(O)c2C(=O)c13 [PIROXANTRONE]	9.1%	0%	4	0	0	0	0	0	0	0	0	0	0	0
CCc1[nH]c(=O)[nH]c1C(=O)c1ccncc1 [PIROXIMONE]	0%	0%	0	1	0	0	0	0	0	0	0	0	0	0
